Experimental data as given in patent publication US20030157155A1, “Compositions for use as penetration promoters in transdermal formulations for highly lipophilic active ingredients” (priority 2000, published 2003).

What was measured:
[1] = octanol/water partition coefficient
[2] = physchem

Row | SMILES | logP [1] | logP [2]
1 | CN(CCCCCCC(F)(F)C(F)(F)C(F)(F)C(F)(F)F)CCCCC[C@@H]1Cc2cc(O)ccc2[C@@H]2[C@@H]1[C@@H]1CC[C@H](O)[C@@]1(C)C[C@@H]2F [antiestrogen 2, 11β-fluoro-7α-{5-[methyl-(7,7,8,8,9,9,10,10,10-nonafluorodecyl)amino]pentyl}estra-1,3,5(10)-triene-3,17β-diol] | 7.8 | 
2 | CN(CCCCC[C@@H]1Cc2cc(O)ccc2[C@@H]2[C@@H]1[C@@H]1CC[C@H](O)[C@@]1(C)C[C@@H]2F)CCCSCCCC(F)(F)C(F)(F)F [antiestrogen 1, 11β-fluoro-7α-{5-[N-methyl-N-3-(4,4,5,5,5-pentafluoropentylthio)propylamino]pentyl}estra-1,3,5(10)-triene-3,17β-diol] |  | 5.8
